{"source": "paper PMC4965013", "about": "“Open Source Drug Discovery with the Malaria Box Compound Collection for Neglected Diseases and Beyond” (PLoS Pathogens, 2016)", "key": {"[1]": {"tested_on": "P. falciparum 3D7 trophozoites", "assay": "Metabolomic fingerprint profiling LC-MS", "assay_type": "cell-based, Plasmodium falciparum", "design": "UDP-D-glucose / ADP-D-glucose: unit not given here"}, "[2]": {"tested_on": "Saccharomyces cerevisiae strain WC081", "assay": "Yeast disc diffusion in combination with artemisinin", "assay_type": "cell-based", "details": "10 µL of 1 mM on disc, 0.2 µM artemisinin, read-out: larger zone size with artemisinin (SCG+artemisinin minus SCG)", "from_the_text": "Yeast screening for enhanced drug effects in combination with artemisinin, Jensen group (data presented first in this paper). […] Yeast (S. cerevisiae) was used as a proxy for P. falciparum, because the killing of S. cerevisiae and P. falciparum appear to have similarities. Saccharomyces cerevisiae strain WC081 (Mat a, leu2∆0, lys2∆0, ura3∆0, his3∆1, pdr1∆::HIS3, pdr3∆::kanMX4) was utilized and was originally derived from strain BY4742. Regulators of Multi-drug resistance transporters have been deleted from this strain to enhance the toxicity of compounds. Assay utilized the disc diffusion method with the observance of a clear zone indicating inhibition of growth. Synthetic complete medium containing 3% glycerol as a carbon source (SCG) was used in each assay. 10 µL of each compound at 1 mM was added to a paper disc which was placed on SCG and SCG^+artemisinin (0.2 µM) plates seeded with 10e6 yeast cells. Plates were incubated at 30 °C for 5 days and clear zones were measured. Compounds that produced a larger clear zone in the presence of artemisinin were considered to have an additive interaction with artemisinin. Results are reported as diameter of clear zone on SCG^+artemisinin plates - diameter of clear zone on SCG plates without artemisinin."}, "P. falciparum": {"tested_on": "P. falciparum", "assay": "EC50 listed in S2 Table Metabolomics (used to set the concentration tested)", "assay_type": "cell-based", "details": "Plasmodium falciparum; EC50 used for Factor_XEC50 in metabolomics; read-out: EC50_nM"}, "PfMTIP-MyoA": {"biological_target": "T1, PfMTIP-MyoA (Plasmodium falciparum, UniProt Q8I4W8)", "T1 construct": "made in house; host or cells: E. coli BL21 DE3 (peptide)", "T1 sequence (Q8I4W8 entry or part of it)": "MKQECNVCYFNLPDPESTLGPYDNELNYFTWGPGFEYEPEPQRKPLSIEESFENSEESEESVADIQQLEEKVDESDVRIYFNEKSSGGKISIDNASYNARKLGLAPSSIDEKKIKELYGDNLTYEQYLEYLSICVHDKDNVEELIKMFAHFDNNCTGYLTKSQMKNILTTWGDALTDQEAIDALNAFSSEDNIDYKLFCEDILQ", "assay": "SPR MTIP-MyoA PPI", "assay_type": "binding, P. falciparum", "procedure": "Atg8-Atg3, Aldolase-TRAP, and Aldolase-MTRAP, MTIP-MyoA, GAP50-FactorH protein-protein interaction (PPI) inhibitor and Surface Plasmon Resonance screening to identify protein-protein interaction inhibitors, Bosch group (Atg8-Atg3 interactions are published in ref [38], rest are not or as noted below). In a primary screen, the Malaria Box compounds were screened at 5 µM final concentration in 1x PBS supplemented with 0.01% (v/v) P20 and 1% (v/v) DMSO using a Biacore 3000 instrument. While one protein was covalently attached to the chip surface via amine coupling, the analyte was passed over the chip in the presence and absence of Malaria Box compounds. Every 12th injection a positive control was passed over the chip to ensure constant binding of the partner protein during the duration of the experiment. Malaria Box compounds resulting in more than 25% decrease in binding of the two proteins to each other were further considered in a dose-response screen ranging from 50 µM to 200 nM. Similar to the primary screen, a positive control, consisting of the protein partner alone in the absence of small molecule compounds, was passed over the flow cells to ensure that the chip surface had not decayed over the course of the experiment. All SPR interaction studies were performed as previously described. […]"}, "PfPMT": {"biological_target": "PfPMT (Plasmodium falciparum, UniProt Q8IDQ9)", "sequence (Q8IDQ9 whole entry)": "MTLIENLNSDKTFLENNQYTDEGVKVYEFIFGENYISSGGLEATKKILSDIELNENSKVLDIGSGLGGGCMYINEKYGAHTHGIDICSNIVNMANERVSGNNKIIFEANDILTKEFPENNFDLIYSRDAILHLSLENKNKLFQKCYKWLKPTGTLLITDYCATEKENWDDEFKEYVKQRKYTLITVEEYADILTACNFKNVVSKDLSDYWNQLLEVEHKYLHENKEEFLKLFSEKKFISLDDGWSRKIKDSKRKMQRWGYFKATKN", "assay": "PfPMT gene replacement yeast growth", "details": "100µM"}, "[3]": {"details": "metabolite level change after treatment"}}}
{"smiles": "Cc1cc(Nc2ccc3ccccc3c2)n2ncnc2n1", "note": "[MMV011099]", "values": [{"measurement": "Acetyllysine", "setting": "[1]; S2 Table Metabolomics, metabolite Acetyllysine", "result": 0.02852}, {"measurement": "N-acetyl-L-ornithine", "setting": "[1]; S2 Table Metabolomics, metabolite N-acetyl-L-ornithine", "result": 0.1505}, {"measurement": "N-carbamoyl-L-aspartate", "setting": "[1]; S2 Table Metabolomics, metabolite N-carbamoyl-L-aspartate", "result": 3.868}, {"measurement": "NADPH", "setting": "[1]; S2 Table Metabolomics, metabolite NADPH", "result": 1.182}, {"measurement": "dAMP", "setting": "[1]; S2 Table Metabolomics, metabolite dAMP", "result": -0.08024}, {"measurement": "dCMP", "setting": "[1]; S2 Table Metabolomics, metabolite dCMP", "result": -0.5906}, {"measurement": "dTDP", "setting": "[1]; S2 Table Metabolomics, metabolite dTDP", "result": -1.017}, {"measurement": "dTMP", "setting": "[1]; S2 Table Metabolomics, metabolite dTMP", "result": -0.9279}, {"measurement": "dTTP", "setting": "[1]; S2 Table Metabolomics, metabolite dTTP", "result": -1.156}, {"measurement": "dihydroorotate", "setting": "[1]; S2 Table Metabolomics, metabolite dihydroorotate", "result": 4.157}, {"measurement": "orotate", "setting": "[1]; S2 Table Metabolomics, metabolite orotate", "result": -1.974}, {"measurement": "DLH", "setting": "[1]; S2 Table Metabolomics, peptide DLH", "result": 0.4532}, {"measurement": "DLS/SDL/SID", "setting": "[1]; S2 Table Metabolomics, peptide DLS/SDL/SID", "result": 0.4641}, {"measurement": "PD", "setting": "[1]; S2 Table Metabolomics, peptide PD", "result": 0.1181}, {"measurement": "PEE", "setting": "[1]; S2 Table Metabolomics, peptide PEE", "result": 0.2947}, {"measurement": "PVNF", "setting": "[1]; S2 Table Metabolomics, peptide PVNF", "result": 0.2329}, {"measurement": "3-phosphoglycerate", "setting": "[1]; metabolite 3-phosphoglycerate, S2 Table Metabolomics", "result": -0.2056}, {"measurement": "ADP-D-glucose", "setting": "[1]; metabolite ADP-D-glucose, S2 Table Metabolomics", "result": 0.1525}, {"measurement": "ATP", "setting": "[1]; metabolite ATP, S2 Table Metabolomics", "result": 0.2332}, {"measurement": "CDP", "setting": "[1]; metabolite CDP, S2 Table Metabolomics, change in metabolite level after compound treatment", "result": -0.709}, {"measurement": "D-sedoheptulose-1/7-phosphate", "setting": "[1]; metabolite D-sedoheptulose-1/7-phosphate, S2 Table Metabolomics, change in metabolite level after compound treatment", "result": 0.01889}, {"measurement": "FAD", "setting": "[1]; metabolite FAD, S2 Table Metabolomics", "result": 0.08024}, {"measurement": "GMP", "setting": "[1]; metabolite GMP, S2 Table Metabolomics, change in metabolite level after compound treatment", "result": 0.02967}, {"measurement": "NAD+", "setting": "[1]; metabolite NAD+, S2 Table Metabolomics", "result": -0.0008425}, {"measurement": "NADP+", "setting": "[1]; metabolite NADP+, S2 Table Metabolomics", "result": 0.1353}, {"measurement": "Octoluse Bisphosphate", "setting": "[1]; metabolite Octoluse Bisphosphate, S2 Table Metabolomics, change in metabolite level after compound treatment", "result": 0.08614}, {"measurement": "Pyroglutamic acid", "setting": "[1]; metabolite Pyroglutamic acid, S2 Table Metabolomics", "result": -0.4752}, {"measurement": "UDP-D-glucose", "setting": "[1]; metabolite UDP-D-glucose, S2 Table Metabolomics", "result": 0.067}, {"measurement": "UDP-D-glucuronate", "setting": "[1]; metabolite UDP-D-glucuronate, S2 Table Metabolomics", "result": -0.02366}, {"measurement": "UDP-N-acetyl-glucosamine", "setting": "[1]; metabolite UDP-N-acetyl-glucosamine, S2 Table Metabolomics", "result": -0.1127}, {"measurement": "UDP", "setting": "[1]; metabolite UDP, S2 Table Metabolomics, change in metabolite level after compound treatment", "result": -1.3628}, {"measurement": "UMP", "setting": "[1]; metabolite UMP, S2 Table Metabolomics, change in metabolite level after compound treatment", "result": -1.675}, {"measurement": "UTP", "setting": "[1]; metabolite UTP, S2 Table Metabolomics, change in metabolite level after compound treatment", "result": -1.64}, {"measurement": "a-ketoglutarate", "setting": "[1]; metabolite a-ketoglutarate, S2 Table Metabolomics", "result": -1.062}, {"measurement": "citrate/isocitrate", "setting": "[1]; metabolite citrate/isocitrate, S2 Table Metabolomics, change in metabolite level after compound treatment", "result": -1.28}, {"measurement": "cytidine", "setting": "[1]; metabolite cytidine, S2 Table Metabolomics", "result": 0.7717}, {"measurement": "dATP", "setting": "[1]; metabolite dATP, S2 Table Metabolomics", "result": 0.5433}, {"measurement": "dGMP/AMP", "setting": "[1]; metabolite dGMP/AMP, S2 Table Metabolomics, change in metabolite level after compound treatment", "result": -0.03244}, {"measurement": "fumarate", "setting": "[1]; metabolite fumarate, S2 Table Metabolomics, change in metabolite level after compound treatment", "result": -1.091}, {"measurement": "glucose-1/6-phosphate", "setting": "[1]; metabolite glucose-1/6-phosphate, S2 Table Metabolomics, change in metabolite level after compound treatment", "result": 0.2093}, {"measurement": "glycerate", "setting": "[1]; metabolite glycerate, S2 Table Metabolomics, change in metabolite level after compound treatment", "result": -1.246}, {"measurement": "guanine", "setting": "[1]; metabolite guanine, S2 Table Metabolomics, change in metabolite level after compound treatment", "result": -0.547}, {"measurement": "guanosine", "setting": "[1]; metabolite guanosine, S2 Table Metabolomics, change in metabolite level after compound treatment", "result": -1.524}, {"measurement": "hypoxanthine", "setting": "[1]; metabolite hypoxanthine, S2 Table Metabolomics", "result": 0.001118}, {"measurement": "indole", "setting": "[1]; metabolite indole, S2 Table Metabolomics", "result": 0.03287}, {"measurement": "inosine", "setting": "[1]; metabolite inosine, S2 Table Metabolomics, change in metabolite level after compound treatment", "result": -0.4013}, {"measurement": "2_3-Diphosphoglyceric acid", "setting": "[1]; [3]", "result": -0.01924}, {"measurement": "4-phosphopantothenate", "setting": "[1]; [3]", "result": -0.6208}, {"measurement": "6-phospho-D-gluconate", "setting": "[1]; [3]", "result": 0.1135}, {"measurement": "FMN", "setting": "[1]; [3]", "result": -0.06047}, {"measurement": "IMP", "setting": "[1]; [3]", "result": -0.0451}, {"measurement": "Pyrophosphate", "setting": "[1]; [3]", "result": 0.1187}, {"measurement": "Sedoheptoluse bisphosphate", "setting": "[1]; [3]", "result": -0.1999}, {"measurement": "cyclic-AMP", "setting": "[1]; [3]", "result": -0.1393}, {"measurement": "glutathione disulfide", "setting": "[1]; [3]", "result": -0.2357}, {"measurement": "lactate", "setting": "[1]; [3]", "result": -0.8843}, {"measurement": "myo-inositol", "setting": "[1]; [3]", "result": -1.14}, {"measurement": "nicotinate", "setting": "[1]; metabolite nicotinate, S2 Table Metabolomics", "result": -1.365}, {"measurement": "ornithine", "setting": "[1]; metabolite ornithine, S2 Table Metabolomics", "result": 0.02843}, {"measurement": "phosphoenolpyruvate", "setting": "[1]; metabolite phosphoenolpyruvate, S2 Table Metabolomics", "result": -0.5081}, {"measurement": "pyruvate", "setting": "[1]; metabolite pyruvate, S2 Table Metabolomics, change in metabolite level after compound treatment", "result": -1.9111}, {"measurement": "ribose-phosphate", "setting": "[1]; metabolite ribose-phosphate, S2 Table Metabolomics", "result": 0.184}, {"measurement": "sarcosine/alanine", "setting": "[1]; metabolite sarcosine/alanine, S2 Table Metabolomics, change in metabolite level after compound treatment", "result": -0.4398}, {"measurement": "sn-glycerol-3-phosphate", "setting": "[1]; metabolite sn-glycerol-3-phosphate, S2 Table Metabolomics", "result": -0.3081}, {"measurement": "succinate/methylmalonic acid", "setting": "[1]; metabolite succinate/methylmalonic acid, S2 Table Metabolomics, change in metabolite level after compound treatment", "result": -0.5239}, {"measurement": "uridine", "setting": "[1]; metabolite uridine, S2 Table Metabolomics, change in metabolite level after compound treatment", "result": -1.376}, {"measurement": "xanthosine", "setting": "[1]; metabolite xanthosine, S2 Table Metabolomics, change in metabolite level after compound treatment", "result": -0.974}, {"measurement": "zone of inhibition at 1000 µM", "setting": "[2]", "result": 7, "unit": "mm"}, {"measurement": "EC50", "setting": "P. falciparum", "result": 242, "unit": "nM"}]}
{"smiles": "O=C(NC(c1ccccc1)c1ccc2cccnc2c1O)c1ccccc1", "note": "(stereo not drawn) [MMV666080]", "values": [{"measurement": "identified against the PfMTIP-MyoA interaction", "setting": "PfMTIP-MyoA", "result": "identified against the PfMTIP-MyoA interaction"}, {"measurement": "candidate inhibitors of PfPMT activity (yeast functional assay)", "setting": "PfPMT", "result": "candidate inhibitors of PfPMT activity"}]}
{"smiles": "Cc1ccc(CN2CCC(C(=O)Nc3ccc(-c4cc5ccccc5[nH]4)cc3)CC2)o1", "note": "[MMV666071]", "values": [{"measurement": "identified against the PfMTIP-MyoA interaction", "setting": "PfMTIP-MyoA", "result": "identified against the PfMTIP-MyoA interaction"}]}
